Series [1] is described as follows: Tolerability (mouse weight, health status) in the therapy study. It counts as in vivo, CD-1 Nude mice. How it is done:
(§1) For therapeutic efficacy studies, single doses of 3,885-8,325 MBq/kg of [^177Lu]-3BP-227 (2,100-4,500 μCO or 1.85-5.55 MBq/kg of [^225Ac]-3BP-227 (1-3 μCO were administered to animals bearing HT29 xenografts (average tumor volume=212±46 mm^3), and tumor growth was monitored for 77 days. Mice in the control group were administered vehicle alone (10% ethanol in PBS). Study endpoints included tumor volume measurement and/or impact to animal health status.
A therapy efficacy study of [^177Lu]-3BP-227 and [^225Ac]-3BP-227 was conducted in mice comprising the following: • 1. […] Target dose of radioactivity was 2.1 or 4.5 mCi of [^177Lu]-3BP-227 per mouse, or 1 or 3 μCi of [^225Ac]-3BP-227 per mouse, for radiotherapy groups. • 3. […] For all groups, tumor size and mouse weight were monitored for 34-77 days. Relative tumor volume, relative mouse weight, and tumor regression relative to control were also calculated.
[^177Lu]-3BP-227 will be dissolved in PBS containing 10% ethanol and prepared at a concentration of about 13 mCi/mL and about 25 mCi/mL. […] The length (L) and width (W) of the tumor will be measured three times a week up to day 28, and the tumor volume will be calculated as per Section 13, Data Calculations and Statistical Analysis. […]

The next series relates to HT-29 xenograft tumors. Kind of series: Therapy study of [^177Lu]-3BP-227 and [^225Ac]-3BP-227 in CD-1 Nude mice bearing HT-29 xenograft tumors. Particulars: for tumor growth inhibition relative to controls: single i.v. dose 4.5 mCi per mouse (8,325 MBq/kg), HT-29 xenografts, monitored 34 days. It counts as in vivo. How it is done:
as §1
A therapy efficacy study of [^177Lu]-3BP-227 and [^225Ac]-3BP-227 was conducted in mice comprising the following: • 1. 30 CD-1 Nude mice (5-6 week-old females; Charles River Laboratories) bearing subcutaneous HT-29 (ATCC #HTB-38; colorectal adenocarcinoma) tumor xenografts distributed amongst 5 groups (n=6). There were two groups each treated with [^177Lu]-3BP-227 or [^225Ac]-3BP-227 and 1 control group (below). • 2. Target dose of radioactivity was 2.1 or 4.5 mCi of [^177Lu]-3BP-227 per mouse, or 1 or 3 μCi of [^225Ac]-3BP-227 per mouse, for radiotherapy groups. • 3. Mice in the control group were administered vehicle alone (10% ethanol in PBS). • 4. For all groups, tumor size and mouse weight were monitored for 34-77 days. Relative tumor volume, relative mouse weight, and tumor regression relative to control were also calculated.
Perform an in vivo therapy study to determine the efficacy of [^177Lu]-3BP-227 and [^225Ac]-3BP-227, for the treatment of subcutaneous HT-29 xenograft tumors in nude mice.
Groups of CD-1 Nude female mice (five groups; n=6 each, 30 total) will be administered radiolabelled test articles via intravenous injection once.
[^177Lu]-3BP-227 will be dissolved in PBS containing 10% ethanol and prepared at a concentration of about 13 mCi/mL and about 25 mCi/mL. [^177Lu]-3BP-227 compounds would be administered (in 200 μL) at a dose of 2.1 mCi (about 13 mCi/mL stock) or 4.5 mCi (about 25 mCi/mL stock) to two groups of animals (n=12 total). [^225Ac]-3BP-227 will be dissolved in PBS containing 10% ethanol and prepared at a concentration of 5 μCi/mL and 15 μCi/mL. [^225Ac]-3BP-227 compounds will be administered (in 200 μL) at a dose of 1 μCi (5 μCi/ml stock) or 3 μCi (15 μCi/mL stock) to two groups of animals (n=12 total). […] The length (L) and width (W) of the tumor will be measured three times a week up to day 28, and the tumor volume will be calculated as per Section 13, Data Calculations and Statistical Analysis. […]
1. Tumor volume is calculated according to the formula: TV=(L×W^2)×0.52, where L is the longest diameter (length) of the tumor and W is the shortest diameter (width) of the tumor. Tumor volume at day n is expressed as relative tumor volume (RTV) according to the following formula: RTV=TVn/TV0, where TVn is the tumor volume at day n, and TV0 is the tumor volume at day 0. […]

Series [2] can be described thus: Acute toxicity in mice with [^177Lu]-3BP-227 therapy (earlier studies). It counts as in vivo. The following applies: earlier [^177Lu]-3BP-227 therapy studies in mice.
Series [3] deals with HT-29 xenografts. In words: Earlier [^177Lu]-3BP-227 therapy study (Study 1), HT-29 xenografts in nude mice. The format is in vivo.
Series [4] concerns NTSR1-expressing HT-29 xenograft tumors. In words: Uptake and persistence in NTSR1-expressing HT-29 xenograft tumors. The following applies: NTSR1-expressing HT-29 xenograft tumors in Nude mice. The format is in vivo. The source says:
(§2) The compounds to be evaluated are [^177Lu]-3BP-227 and [^225Ac]-3BP-227, which are the ^177Lu and ^225Ac radiolabelled versions, respectively, of the compound of Formula I (also referred as 3BP-227). NTSR1 is overexpressed in several types of cancer, e.g., pancreatic ductal adenocarcinoma (PDAC), Ewing's sarcoma and prostate cancer, but it is rarely expressed in normal tissues.

For a further series, the system named is 293 tumor xenografts. In words: Uptake into 293 tumor xenografts, which do not express NTSR1. The format is in vivo. The following applies: 293 tumor xenografts (no NTSR1 expression).
From the text: as §2

Series [5] concerns HT-29 xenografts. In words: Earlier [^177Lu]-3BP-227 therapy study (Study 2), HT-29 xenografts. Particulars: 4.5 mCi per mouse, tumor volume about 450 mm^3 at injection. The format is in vivo, nude mice.

Entries after “also recorded” stand apart in the source; their conditions may differ.

In the case of `COc1cccc(OC)c1-c1cc(C(=O)NC2(C(=O)O)C3CC4CC(C3)CC2C4)nn1-c1ccc(C(=O)N(C)CCCN(C)CCCN(C)C(=O)CN2CCN(CC(=O)[O-])CCN(CC(=O)[O-])CCN(CC(=O)[O-])CC2)cc1C(C)C.[177Lu+3]` (stereo not shown) [[^177Lu]-3BP-227], the “weight gain compared with vehicle control” value in series [1] (2.1 and 4.5 mCi groups, 34 days) is “indistinguishable weight gain”. The treatment-related toxicities entry in series [1] (all dose groups of the studies) was “no treatment-related toxicities observed”. In addition, the “frequency of significant tumor regrowth” value with HT-29 xenograft tumors (4.5 mCi [^177Lu]-3BP-227 versus 1 μCi [^225Ac]-3BP-227 group) is listed as “significant tumor regrowth was more frequent”. Moreover, the “duration of tumor growth inhibition relative to controls” value in the series with HT-29 xenograft tumors (4.5 mCi group, whole monitoring period) was found to be 34 days. In addition, the “tumor growth inhibition relative to controls” value in the series with HT-29 xenograft tumors is “inhibition in the growth of tumors; also recorded: significant and durable tumor growth inhibition”; in the series on HT-29 xenograft tumors (listed as [^177Lu]3BP-227), “efficacious at suppressing tumor growth”. The acute toxicity result in series [2] is listed as “no observed acute toxicity”. Further, the “inhibition of tumor growth” value in the series with HT-29 xenografts [3] (about 2.1 mCi per mouse) was “somewhat inhibited tumor growth”. Moreover, the “suppression of tumor growth” value in the series with HT-29 xenografts [3] (about 4.5 mCi per mouse, tumor volume about 200 mm^3 at injection) was “effective as a therapy for suppressing tumor growth”. In addition, the “duration of tumor growth suppression” value in the series with HT-29 xenografts [3] (particularly evident at about 4.5 mCi per mouse) was “at least 60 days”. In series [4], the “tumor uptake and persistence” value is “good uptake and persistence”. Besides, the tumor uptake result with 293 tumor xenografts is recorded as “minimal uptake”. For the same compound, the “suppression of HT-29 tumor growth” value with HT-29 xenografts [5] was “not efficacious at suppressing HT-29 tumor growth”.

Source of the values: patent publication US20240165280A1, “METHODS FOR TREATMENT OF CANCERS” (Fusion Pharmaceuticals Inc., priority 2021, published 2024).
